In patent US10772882B2, “Pulmonary hypertension preventative or therapeutic agent containing crude drug” (TOHOKU UNIVERSITY, priority 2016, dated 2020):

Columns and labels:
[1] = test system: pulmonary artery smooth muscle cells; settings: Non-patent Literature 5; cited from earlier work
[2] = test system: transcription factor NF-κB; settings: Non-patent Literature 4 and 5; cited from earlier work
[3] = test system: pulmonary artery smooth muscles derived from patients with pulmonary arterial hypertension; assay: MTT assay of cell proliferation of pulmonary artery smooth muscle cells from patients; type: cell-based, human; settings: for suppressive effect on proliferation of pulmonary artery smooth muscle cells: final concentration 5 μM, same method as Example 1, data not shown
Text: The preventive or therapeutic agent for pulmonary hypertension of the present invention prevents or treats and ameliorates pulmonary hypertension by at least suppressing excessive proliferation of pulmonary artery smooth muscle cells. Accordingly, the present invention also provides a suppressor for excessive proliferation of pulmonary artery smooth muscle cells containing emetine or a salt thereof. […] However, emetine serving as the active ingredient of the present invention is a compound quite different in structure from IMD-0354 described above. Further, the inventors of the present invention examined N-p-tosyl-L-phenylalanine chloromethyl ketone, caffeic acid phenethyl ester, and Nα-p-tosyl-L-lysine chloromethyl ketone hydrochloride serving as compounds known to have NF-κB-inhibiting actions for their suppressive effects on the proliferation of pulmonary artery smooth muscle cells derived from patients with pulmonary hypertension by the same method as that described in Example 1 to be described later except that each of these compounds was added so that its final concentration was 5 μM. […] Also from such viewpoints, the suppressive effect of emetine on excessive proliferation of pulmonary artery smooth muscle cells and the preventive or therapeutic effect of emetine on pulmonary hypertension in the present invention are unpredictable from the related art. The active ingredient, dosage form, dose, and the like of the suppressor for excessive proliferation of pulmonary artery smooth muscle cells are the same as those of the preventive or therapeutic agent for pulmonary hypertension.
Pulmonary artery smooth muscles derived from patients with pulmonary arterial hypertension were treated with 1 nmol/L to 5 μmol/L emetine solutions (the emetine solutions were prepared with distilled water), and were cultured for 0 hours and 48 hours, followed by an MTT assay to assess cell proliferation rates. Specifically, smooth muscle cells were seeded in 96-well plates at 5,000 cells/well, and 24 hours after the seeding, emetine was added so that its final concentrations were adjusted to from 1 nmol/L to 5 μmol/L. The results are shown in FIG. 1.

[4] = test system: monocrotaline-induced pulmonary hypertension model; assay: monocrotaline-induced pulmonary hypertension model; type: in vivo, rats (SD rats); settings: 0.01 mg/kg or 0.05 mg/kg orally daily for 3 weeks after 60 mg/kg monocrotaline s.c.; vs control group; FIG. 2
Procedure: In vivo tests using pulmonary hypertension animal models were performed on emetine. Specifically, first, the influence of emetine on a monocrotaline-induced pulmonary hypertension model was investigated. A monocrotaline solution used for the production of the pulmonary hypertension model was prepared by dissolving monocrotaline with 1 mol/L hydrochloric acid and then adjusting the pH to 7.4 through titration with 1 mol/L sodium hydroxide using a pH meter. An emetine solution was prepared with distilled water. The monocrotaline-induced pulmonary hypertension model was produced by subcutaneously injecting 6-week-old rats (SD rats, n=13) with 60 mg/kg monocrotaline. After the subcutaneous injection with monocrotaline, the rats were orally administered 0.01 mg/kg or 0.05 mg/kg emetine daily for 3 weeks. A vehicle group was sacrificed 3 weeks after the administration of distilled water to measure right ventricular systolic pressure with Mikro-Tip Catheter transducers 2F (Millar). In addition, after formalin fixation, the right ventricle was removed from the left ventricle to measure a right ventricle/(left ventricle plus septum) weight ratio. Then, the extent of pulmonary hypertension was assessed on the basis of those results.

SU5416/Hypoxia model = assay: SU5416/Hypoxia pulmonary hypertension model; type: in vivo, rats (SD rats); settings: 0.01 mg/kg or 0.05 mg/kg orally daily, week 8 to week 11 after SU5416; vs control group; FIG. 3
Procedure: In addition, an in vivo test using an SU5416/Hypoxia model was also performed. Specifically, first, an SU5416 (semaxanib) solution used for the production of the model was prepared by dissolving SU5416 using carboxy methyl cellulose (CMC). An emetine solution was prepared in the same manner as described above.
Six-week-old rats (SD rats, n=9) were administered 20 mg/kg SU5416 and then bred in a hypoxic chamber using a hypoxicator to be exposed to hypoxia (oxygen concentration: from 8% to 12%) for 3 weeks and then to normoxia. Then, the rats were orally administered 0.01 mg/kg or 0.05 mg/kg emetine daily for a period from the first day of week 8 after the SU5416 administration to the final day of week 11, and were sacrificed on the final day of week 11. Then, the extent of pulmonary hypertension was assessed in the same manner as in the monocrotaline-induced pulmonary hypertension model.

O=C(Nc1cc(C(F)(F)F)cc(C(F)(F)F)c1)c1cc(Cl)ccc1O [IMD-0354, N-[3,5-bis(trifluoromethyl)phenyl]-5-chloro-2-hydroxybenzamide]
proliferation of pulmonary artery smooth muscle cells [1]: suppresses the proliferation of pulmonary artery smooth muscle cells | NF-κB inhibition [2]: has an NF-κB-inhibiting action

Cc1ccc(S(=O)(=O)N[C@@H](Cc2ccccc2)C(=O)CCl)cc1 [N-p-tosyl-L-phenylalanine chloromethyl ketone]
suppressive effect on proliferation of pulmonary artery smooth muscle cells [3]: not sufficiently suppressed

Cc1ccc(S(=O)(=O)N[C@@H](CCCCN)C(=O)CCl)cc1.Cl [Nα-p-tosyl-L-lysine chloromethyl ketone hydrochloride]
suppressive effect on proliferation of pulmonary artery smooth muscle cells [3]: not sufficiently suppressed

O=C(/C=C/c1ccc(O)c(O)c1)OCCc1ccccc1 [caffeic acid phenethyl ester]
suppressive effect on proliferation of pulmonary artery smooth muscle cells [3]: not sufficiently suppressed

CC[C@H]1CN2CCc3cc(OC)c(OC)cc3[C@@H]2C[C@@H]1C[C@H]1NCCc2cc(OC)c(OC)cc21 [emetine]
right ventricle/(left ventricle plus septum) weight ratio [4]: suppressed | right ventricular systolic pressure [4]: suppressed | NF-κB inhibition [2]: known to inhibit a transcription factor NF-κB | cell proliferation rate (MTT assay) ([3]; emetine 1 nmol/L to 5 μmol/L, cultured 48 hours, FIG. 1): suppressed proliferation of the pulmonary artery smooth muscles derived from patients with pulmonary arterial hypertension in a concentration-dependent manner | right ventricle/(left ventricle plus septum) weight ratio (SU5416/Hypoxia model): alleviated | right ventricular systolic pressure (SU5416/Hypoxia model): alleviated
